Data from patent US5455348A, “2-pyrrolidinones, pharmaceutical compositions containing these compounds and processes for preparing them” (Thomae; Karl, priority 1991, dated 1995).
Structures can show the parent of a compound that is named as a salt. Where two headings read alike, the source gives them in different places.

Assays:
[1] = test system: collagen-induced thrombocyte aggregation in platelet-rich plasma; assay: Collagen-induced platelet aggregation in platelet-rich plasma (Born and Cross method); assay type: cell-based, healthy volunteers (human); conditions: read-out: Inhibition of platelet aggregation EC50
Experimental: The thrombocyte aggregation is measured using the Born and Cross method (J. Physiol. 170: 397 (1964)) in platelet-rich plasma taken from healthy volunteers. To inhibit coagulation the blood is mixed with 3.14% sodium citrate in a ratio by volume of 1:10.
Collagen-induced aggregation
The pattern of the decrease in optical density of the platelet suspension is photometrically measured and recorded after the addition of aggregation-triggering substance. The rate of aggregation is concluded from the angle of inclination of the density curve. The point on the curve where there is maximum light transmittance is used to calculate the optical density.
The amount of collagen used is as small as possible but sufficient to produce an irreversible reaction curve. Standard commercial collagen produced by Hormonchemie of Munich is used. Before the addition of the collagen the plasma is incubated for 10 minutes with the substance at 37° C.
From the measurements obtained an EC50 is determined graphically, indicating a 50% change in the optical density in terms of the inhibition of aggregation.

[2] = molecular target: fibrinogen binding to human thrombocytes; assay: Fibrinogen binding to human thrombocytes; conditions: gel-filtered human platelets, 125I fibrinogen, ADP, 20 minutes, ambient temperature; read-out: Fibrinogen-binding test IC50
Experimental: The blood obtained by puncturing an antecubital vein is anticoagulated with trisodium citrate (final concentration: 13 mM) and centrifuged for 10 minutes at 170×g. The supernatant platelet-rich plasma is poured onto a Sepharose 2B column (Pharmacia) and eluted with a solution of 90 mM common salt, 14 mM trisodium citrate, 5 mM glucose and 50 mM Tris(hydroxymethyl)aminomethane, adjusted to pH 7.4. The gel-filtered platelets (GFP) appearing before the plasma proteins are used for the binding experiments.
50 μl of a 60 mM calcium chloride solution, 50 μl of a 0.6 mM adenosine diphosphate solution, 100 μl of substance solution or solvent and 50 μl of fibrinogen solution (containing 3 μg of ^125 I fibrinogen) are added to 750 μl of GFP and incubated for 20 minutes at ambient temperature. The non-specific binding is determined in the presence of 3 mg/ml of cold fibrinogen.
900 μl of the incubated material are carefully pipetted onto 250 μl of silicon oil (AP 38: AR 20, 1:2 v/v, Wacker Chemie) in Eppendorf tubes and centrifuged for 2 minutes at 10,000×g. The aqueous supernatant and some of the oil are drawn off, the tips of the tubes are cut off together with the platelet pellet and the quantity of bound fibrinogen is determined in a gamma counter. The concentration of substance which brings about a 50% inhibition in fibrinogen binding is determined from a series of concentrations and is given as the IC50 value.

[3] = Tolerance after intravenous administration; assay type: in vivo; conditions: intravenous administration of 30 mg/kg to three mice
[4] = test system: collagen-induced thrombocyte aggregation; assay: Inhibition of collagen-induced thrombocyte aggregation ex vivo after oral administration; assay type: in vivo; conditions: Rhesus monkeys, oral administration of 1 mg/kg
Experimental: Moreover, the compound of Example 5, for example, inhibits the collagen-induced thrombocyte aggregation ex vivo in Rhesus monkeys for more than 8 hours after oral administration of 1 mg/kg.

[5] = collagen-induced, human platelet-rich plasma, 10 minutes preincubation at 37° C.

| EC50 [1, 5] [nM] | IC50 [2] [nM] | SMILES | animals died [3] | inhibits the collagen-induced thrombocyte aggregation ex vivo for (duration) [4] | EC50 ([1]; Homo sapiens, Platelet) [nM] |
| --- | --- | --- | --- | --- | --- |
| 5500 | 770 | N=C(N)c1ccc2c(c1)CCN(C(=O)NCC[C@@H]1C[C@@H](CC(=O)O)C(=O)N1CCCc1ccccc1)CC2 [Example 4(8), (3S,5S)-5-[2-[(7-amidino-1H-2,3,4,5-tetrahydro-3-benzazepin-3-yl)carbonylamino]ethyl]-3-carboxymethyl-1-(3-phenylpropyl)-2-pyrrolidinone×2 H2 O] |  |  |  |
| 3000 | 590 | Cn1nc(-c2ccc(C(=N)N)cc2)cc(C(=O)NC[C@@H]2C[C@@H](CC(=O)O)C(=O)N2)c1=O [Example 4(15), (3S,5S)-5-[[[6-(4-amidinophenyl)-2-methyl-3(2H)-pyridazinon-4-yl]carbonyl]aminomethyl]-3-carboxymethyl-2-pyrrolidinone] |  |  |  |
| 210 | 140 | N=C(N)c1ccc(-c2ccc(OC[C@@H]3C[C@@H](CC(=O)O)CN3C(=O)c3cccnc3)cc2)cc1 [Example 4(4), (3S,5S)-5-[(4'-amidino-4-biphenylyl)oxymethyl]-3-carboxymethyl-1-nicotinoyl-pyrrolidine] |  |  |  |
| 160 | 31 | N=C(N)c1ccc(-c2ccc(OC[C@@H]3C[C@@H](CC(=O)O)C(=O)N3c3cccnc3)cc2)cc1 [Example 4(6), (3S,5S)-5-[(4'-amidino-4-biphenylyl)oxymethyl]-3-carboxymethyl-1-(3-pyridyl)-2-pyrrolidinone×1.2 H2 O] |  |  |  |
| 590 | 59 | N=C(N)c1ccc(-c2ccc(NC[C@@H]3C[C@@H](CC(=O)O)C(=O)N3)nn2)cc1 [Example 4(13), (3S,5S)-5-[[6-(4-amidinophenyl)-3-pyridazinyl]aminomethyl]-3-carboxymethyl-2-pyrrolidinone] |  |  |  |
|  |  | COC(=O)C[C@@H]1C[C@@H](COc2ccc(-c3ccc(C(=N)NC(=O)OC)cn3)cc2)NC1=O [Example 5, (3S,5S)-5-[[4-[5-(N-Methoxycarbonylamidino)-2-pyridyl]phenyl]oxymethyl]-3-[(methoxycarbonyl)methyl]-2-pyrrolidinone] |  | more than 8 hours |  |
| 38000 | 160 | Nc1nccc2cc(-c3ccc(OC[C@@H]4C[C@@H](CC(=O)O)C(=O)N4)cc3)ccc12 [Example 4(3), (3S,5S)-5-[[4-(1-amino-6-isoquinolinyl)phenyl]oxymethyl]-3-carboxymethyl-2-pyrrolidinone-hydrochloride] |  |  |  |
| 890 | 270 | N=C(N)N1Cc2ccc(C(=O)NCC[C@@H]3C[C@@H](CC(=O)O)C(=O)N3CCCc3ccccc3)cc2C1 [Example 11, (3S,5S)-5-[2-[(2-amidino-5-isoindolinyl)carbonylamino]ethyl]-3-carboxymethyl-1-(3-phenylpropyl)-2-pyrrolidinone] |  |  |  |
| 3800 | 570 | O=C(O)C[C@@H]1C[C@@H](CCNC(=O)c2ccc(C3CCNCC3)cc2)N(CCCc2ccccc2)C1=O [Example 12(6), (3S,5S)-3-carboxymethyl-1-(3-phenylpropyl)-5-[2-[[4-(4-piperidinyl)phenyl]carbonylamino]ethyl]-2-pyrrolidinone×0.75 H2 O] |  |  |  |
| 540 | 200 | N=C(N)c1ccc(-c2ccc(OC[C@@H]3C[C@@H](CC(=O)O)CN3c3ncccn3)cc2)cc1 [Example 4(2), (3S,5S)-5-[(4'-amidino-4-biphenylyl)oxymethyl]-3-carboxymethyl-1-(2-pyrimidyl)-pyrrolidine×0.25 HCl×0.4 H2 O] |  |  |  |
| 2500 | 13000 | COC(=O)C[C@@H]1C[C@@H](COc2ccc(-c3ccc(C(=N)N)cc3)cc2)N(c2cccnc2)C1=O [Example 6(3), (3S,5S)-5-[(4'-amidino-4-biphenylyl)oxymethyl]-3-[(methoxycarbonyl)methyl]-1-(3-pyridyl)-2-pyrrolidinone×1.2 HCl×1 H2 O] |  |  |  |
| 100 | 42 | N=C(N)c1cnc(-c2ccc(OC[C@@H]3C[C@@H](CC(=O)O)C(=O)N3)cc2)s1 [Example 1(3), (3S,5S)-5-[[4-(5-amidino-2-thiazolyl)phenyl]oxymethyl]-3-carboxymethyl-2-pyrrolidinone×0.6 H2 O] |  |  |  |
| 100 | 32 | N=C(N)c1ccc(-c2ccc(OC[C@@H]3C[C@@H](CC(=O)O)C(=O)N3CCCc3ccccc3)nn2)cc1 [Example 4(11)] |  |  |  |

| SMILES | EC50 [1, 5] [nM] | IC50 [2] [nM] | animals died [3] | inhibits the collagen-induced thrombocyte aggregation ex vivo for (duration) [4] | EC50 ([1]; Homo sapiens, Platelet) [nM] |
| --- | --- | --- | --- | --- | --- |
| N=C(N)c1ccc(-c2ccc(OC[C@@H]3C[C@@H](CC(=O)O)C(=O)N3)cc2)nc1 [Example 1, (3S,5S)-5-[[4-(5-amidino-2-pyridyl)phenyl]oxymethyl]-3-carboxymethyl-2-pyrrolidinone] | 60 |  | no animals died |  |  |
| N=C(N)c1ccc(NC(=O)c2cccn(C[C@@H]3C[C@@H](CC(=O)O)C(=O)N3CCCc3ccccc3)c2=O)cc1 [4(18)] |  | 55 | no animals died |  | 430 |
